Source: patent US9902710B2, “Substituted 6, 7-dialkoxy-3-isoquinoline derivatives as inhibitors of phosphodiesterase 10 (PDE 10A)” (Allergan, Inc., priority 2013, dated 2018)
Where a name gives a salt, the structure may show the parent alone.

Biological target: PDE10A
Assay: Diaxonhit phosphodiesterase assay (TR-FRET, LANCE cAMP kit), PDE10A
Type: biochemical
Protocol: Diaxonhit Phosphodiesterase Assay (PDE10A and PDE4D3)
The PDE assay is based on the homogenous time-resolved fluorescence resonance energy transfer (TR-FRET) technology (LANCE® from Perkin Elmer). […] When there is PDE activity, resulting in the degradation of the cyclic nucleotide, the complex is not formed and a decrease in signal is observed.
The phosphodiesterase assay was developed using the LANCE® cAMP kit (PerkinElmer). The assay buffer contained HBSS with 5 mM HEPES, 0.1% BSA, and 1.5 mM MgCl2, pH 7.4. […] Chemical compounds were dissolved in DMSO (final concentration 2% (v/v)).
In a 384-well plate, 2 μL of the inhibitor and 3 μL PDE were added to the well, followed by the addition of 5 μl substrate biotinylated cAMP (1:5). After 60 min incubation at room temperature, 10 μL of assay detection mixture was added to the assay plate. After 1 h at room temperature, the signal was measured on EnVision™ (PerkinElmer).

IC50 [nM]	SMILES
46	COc1cc2cncc(Cc3ccc4cccc(OC)c4n3)c2cc1OC [Compound 21, 2-((6,7-dimethoxyisoquinolin-4-yl)methyl)-8-methoxyquinoline dihydrochloride]
49	COc1cc2c(Cc3cnc4ccccc4c3)cnc(C)c2cc1OC [Compound 26, 3-((6,7-dimethoxy-1-methylisoquinolin-4-yl)methyl)quinoline dihydrochloride]
42	COc1cc2cncc(Cc3ccc4cccc(OCCO)c4n3)c2cc1OC [Compound 42, 2-((2-((6,7-dimethoxyisoquinolin-4-yl)methyl)quinolin-8-yl)oxy)ethanol dihydrochloride]
39	COc1cc2cnc(C)c(Cc3cnc4ccccc4c3)c2cc1OC [Compound 43, 3-((6,7-dimethoxy-3-methylisoquinolin-4-yl)methyl)quinoline dihydrocloride]
63	CCCc1ncc(Cc2cc3cc(OC)ccc3nc2O)c2cc(OC)c(OC)cc12 [Compound 49, 3-((6,7-dimethoxy-1-propylisoquinolin-4-yl)methyl)-6-methoxyquinolin-2-ol dihydrochloride]
151	CCCc1ncc(Cc2cc3cc(C)ccc3nc2O)c2cc(OC)c(OC)cc12 [Compound 54, 3-((6,7-dimethoxy-1-propylisoquinolin-4-yl)methyl)-6-methylquinolin-2-ol dihydrochloride]
20	CCCc1ncc(Cc2ccc3nc(C)ccc3c2)c2cc(OC)c(OC)cc12 [Compound 57, 6-((6,7-dimethoxy-1-propylisoquinolin-4-yl)methyl)-2-methylquinoline dihydrochloride]
11	CCc1ncc(Cc2ccc3cccc(O)c3n2)c2cc(OC)c(OC)cc12 [Compound 83, 2-((1-ethyl-6,7-dimethoxyisoquinolin-4-yl)methyl)quinolin-8-ol]
495	CCOC(=O)C(=O)Nc1cccc2ccc(Cc3cnc(CC)c4cc(OC)c(OC)cc34)nc12 [Compound 92, ethyl 2-((2-((1-ethyl-6,7-dimethoxyisoquinolin-4-yl)methyl)quinolin-8-yl)amino)-2-oxoacetate]
13	CCc1ncc(Cc2ccc3cccc(CNS(N)(=O)=O)c3n2)c2cc(OC)c(OC)cc12 [Compound 94, N-((2-((1-ethyl-6,7-dimethoxyisoquinolin-4-yl)methyl)quinolin-8-yl)methyl)sulfamide]
3.5	CCc1ncc(Cc2cnc3ccc(NC(=O)C(N)=O)cc3c2)c2cc(OC)c(OC)cc12 [Compound 98, N^1-(3-((1-ethyl-6,7-dimethoxyisoquinolin-4-yl)methyl)quinolin-6-yl)oxalamide]
43	CCc1ncc(Cc2cnc3ccc(N(C)S(C)(=O)=O)cc3c2)c2cc(OC)c(OC)cc12 [Compound 101, N-(3-((1-ethyl-6,7-dimethoxyisoquinolin-4-yl)methyl)quinolin-6-yl)-N-methylmethanesulfonamide]
4.3	COc1cc2c(Cc3ccc4nc(C)ccc4c3)cnc(C)c2cc1OC [Compound 105, 6-((6,7-dimethoxy-1-methylisoquinolin-4-yl)methyl)-2-methylquinoline dihydrochloride]
32	CCNc1nc2ccc(OC)cc2cc1Cc1cncc2cc(OC)c(OC)cc12 [Compound 113, 3-((6,7-dimethoxyisoquinolin-4-yl)methyl)-N-ethyl-6-methoxyquinolin-2-amine dihydrochloride]
61	COC(=O)c1ccc(-c2nc3cc(Cc4cncc5cc(OC)c(OC)cc45)ccc3o2)cc1 [Compound 115, methyl 4-(5-((6,7-dimethoxyisoquinolin-4-yl)methyl)benzo[d]oxazol-2-yl)benzoate]
71	CCCc1ncc(Cc2ccc3cccc(OCC(=O)NC4CC4)c3n2)c2cc(OC)c(OC)cc12 [Compound 126, N-cyclopropyl-2-((2-((6,7-dimethoxy-1-propylisoquinolin-4-yl)methyl)quinolin-8-yl)oxy)acetamide]
59	CCOC(=O)COc1cccc2ccc(Cc3cnc(CC)c4cc(OC)c(OC)cc34)nc12 [Compound 128, ethyl 2-((2-((1-ethyl-6,7-dimethoxyisoquinolin-4-yl)methyl)quinolin-8-yl)oxy)acetate]
9.5	CCCc1ncc(Cc2cc3cc(OC)ccc3nc2NC)c2cc(OC)c(OC)cc12 [Compound 129, 3-((6,7-dimethoxy-1-propylisoquinolin-4-yl)methyl)-6-methoxy-N-methylquinolin-2-amine]
6.5	CCCc1ncc(Cc2cnc3ccc(OCC(N)=O)cc3c2)c2cc(OC)c(OC)cc12 [Compound 144, 2-((3-((6,7-dimethoxy-1-propylisoquinolin-4-yl)methyl)quinolin-6-yl)oxy)acetamide]
87	CCCc1ncc(Cc2ccc3oc(=O)n(CC(N)=O)c3c2)c2cc(OC)c(OC)cc12 [Compound 148, 2-(5-((6,7-dimethoxy-1-propylisoquinolin-4-yl)methyl)-2-oxobenzo[d]oxazol-3(2H)-yl)acetamide]
13	COc1cc2c(Cc3ccc4cccc(N)c4n3)cnc(C)c2cc1OC [Compound 152, 2-((6,7-dimethoxy-1-methylisoquinolin-4-yl)methyl)quinolin-8-amine]
6	COc1cc2cncc(Cc3cnc4ccc(O)c(C(F)(F)F)c4c3)c2cc1OC [Compound 161, 3-((6,7-dimethoxyisoquinolin-4-yl)methyl)-5-(trifluoromethyl)quinolin-6-ol]

SMILES	IC50 [nM]
COc1cc2cncc(Cc3ccc4sccc4c3)c2cc1OC [Compound 3, 4-(benzo[b]thiophen-5-ylmethyl)-6,7-dimethoxyisoquinoline hydrochloride]	100
CCCc1ncc(Cc2cc3cc(OC)ccc3nc2NCCNC(C)=O)c2cc(OC)c(OC)cc12 [Compound 76, N-(2-((3-((6,7-dimethoxy-1-propylisoquinolin-4-yl)methyl)-6-methoxyquinolin-2-yl)amino)ethyl)acetamide dihydrochloride]	11
CCCc1ncc(Cc2cnc3ccc(OP(=O)(O)O)cc3c2)c2cc(OC)c(OC)cc12 [Compound 171, sodium 3-((6,7-dimethoxy-1-propylisoquinolin-4-yl)methyl)quinolin-6-yl phosphate]	62
